Results from patent US5070210A, “Novel ketenimines as intermediates for insecticides” (ICI Americas Inc., priority 1990, dated 1991).

Tests used:
Type in all cases: in vivo
[1] = tested on: Housefly [Musca domestica]; assay: Housefly insecticidal test; conditions: μg per 25 female flies; mortality after 48 hours
Protocol: (§1) The compounds in Tables 1 and 2 above were tested for insecticidal activity using the following testing procedures. LC50 values, based on the results of these tests and calculated according to dosage-mortality curves, are expressed in Table 3.
Housefly [Musca domestica]:
Test compounds were diluted in acetone and aliquots pipetted onto the bottom of aluminum dishes. To ensure even spreading of the chemical on the bottom of the dishes, 1 ml of acetone containing 0.01% peanut oil was also added to each dish. After all solvents had evaporated, the dishes were placed in circular cardboard cages containing 25 female houseflies, 1-2 days old. The cages were covered on the bottom with cellophane and on the top with tulle netting, and each contained a sugar-water saturated cotton plug for maintenance of the flies. Mortality was recorded after 48 hours. Test levels ranged from 100 μg/25 female houseflies downward. The LC-50 value is expressed below in Table 3 under the heading "HF", in terms of μg of the test compound per 25 female flies.

[2] = tested on: Tobacco Budworm [Heliothis virescens (Fabricius)] eggs; assay: Tobacco budworm egg test; conditions: 2-day old eggs, percent in solution
Protocol: as §1
Tobacco Budworm [Heliothis virescens (Fabricius)]:
(b). Eggs: Paper towel patches of 2-day old eggs of the tobacco budworm were dipped in acetone solutions of the test compound and placed in petri dishes containing a portion of larval rearing medium. Treated eggs were maintained at 78° F. and mortality was recorded after all control eggs had hatched and the young larvae were feeding on the media. Test concentrations ranged from 0.1% downward. The LC-50 value is expressed below in Table 3 under the heading "TBW-E" in terms of percent of the test compound in the solution.

[3] = tested on: Cabbage Looper [Trichoplusia ni (Hubner)]; assay: Cabbage looper insecticidal test; conditions: second-instar larvae, percent in solution; 3-5 days
Protocol: as §1
Cabbage Looper [Trichoplusia ni (Hubner)]:
Test compounds were diluted in a 50-50 acetone-water solution. Cotyledons of hyzini squash (Calabacita abobrinha), approximately 1×1.5 inches, were immersed in the test solutions for 2-3 seconds and placed on a wire screen to dry. The dried leaves were placed in petri dishes containing a moistened piece of filter paper and infested with 5 second-instar cabbage looper larvae. The dishes were placed in a high humidity chamber. Mortality of the larvae was recorded 3-5 days later. Test concentrations ranged from 0.1% downward. The LC-50 value is expressed below in Table 3 under the heading "CL" in terms of percent of the test compound in solution.

Compound: Cc1ccc(Oc2cccc(COC(=Nc3ccc(F)cc3)C(C)C)c2)cc1 [Compound 231]
- LC50, HF [1]: > 100 µg
- LC50, TBW, E (TBW-E) [2]: > 0.1%
- LC50, CL [3]: 0.003%

Compound: CC(C)C(=Nc1c(F)c(F)c(F)c(F)c1F)OCc1cccc(Oc2ccc(F)cc2F)c1 [Compound 232]
- LC50, HF [1]: > 100 µg
- LC50, TBW, E (TBW-E) [2]: > 0.1%
- LC50, CL [3]: 0.004%

Compound: CC(C)C(=Nc1ccc(C(C)(C)C)cc1)OCc1cccc(Oc2ccc(F)cc2)c1 [Compound 235]
- LC50, HF [1]: > 100 µg
- LC50, TBW, E (TBW-E) [2]: > 0.1%
- LC50, CL [3]: 0.004%

Compound: Cc1cc(N=C(OCc2cccc(Oc3ccc(F)cc3)c2)C(C)C)ccc1F [Compound 236]
- LC50, HF [1]: 7 µg
- LC50, TBW, E (TBW-E) [2]: 0.06%
- LC50, CL [3]: 0.0018%

Compound: CC(C)C(=Nc1ccc(Cl)cc1)OCc1cccc(Oc2ccc(Br)cc2)c1 [Compound 237]
- LC50, HF [1]: 50 µg
- LC50, TBW, E (TBW-E) [2]: 0.075%
- LC50, CL [3]: 0.0006%

Compound: CC(C)C(=Nc1ccc2c(c1)OC(C)(C)O2)OCc1cccc(Oc2ccc(Cl)cc2)c1 [Compound 241]
- LC50, HF [1]: > 100 µg
- LC50, TBW, E (TBW-E) [2]: > 0.1%
- LC50, CL [3]: 0.0004%

Compound: CC(C)C(=Nc1ccc2c(c1)CCO2)OCc1cccc(Oc2ccccc2)c1 [Compound 243]
- LC50, HF [1]: 9 µg
- LC50, TBW, E (TBW-E) [2]: > 0.1%
- LC50, CL [3]: 0.005%

Compound: CC(C)C(=Nc1ccc2c(c1)OCO2)OCc1cccc(Oc2ccc(C(F)(F)F)cc2)c1 [Compound 246]
- LC50, HF [1]: 60 µg
- LC50, TBW, E (TBW-E) [2]: > 0.1%
- LC50, CL [3]: 0.004%

Compound: CC(C)C(=Nc1ccc(F)c(Cl)c1)OCc1cccc(Oc2ccc(C(F)(F)F)cc2)c1 [Compound 247]
- LC50, HF [1]: > 100 µg
- LC50, TBW, E (TBW-E) [2]: > 0.1%
- LC50, CL [3]: 0.009%

Compound: COc1cc(N=C(OCc2cccc(Oc3ccccc3)c2)C(C)C)cc(OC)c1OC [Compound 248]
- LC50, HF [1]: 40 µg
- LC50, TBW, E (TBW-E) [2]: > 0.1%
- LC50, CL [3]: 0.02%

Compound: Cc1cccc(N=C(OCc2cccc(Oc3ccccc3)c2)C(C)C)c1C [Compound 249]
- LC50, HF [1]: 36 µg
- LC50, TBW, E (TBW-E) [2]: 0.035%
- LC50, CL [3]: 0.0025%

Compound: Cc1ccc(C)c(N=C(OCc2cccc(Oc3ccccc3)c2)C(C)C)c1 [Compound 250]
- LC50, HF [1]: 38 µg
- LC50, TBW, E (TBW-E) [2]: 0.038%
- LC50, CL [3]: 0.004%

Compound: CC(C)C(=Nc1ccc(Br)c(Br)c1)OCc1cccc(Oc2ccc(F)cc2)c1 [Compound 251]
- LC50, HF [1]: 25 µg
- LC50, TBW, E (TBW-E) [2]: 0.06%
- LC50, CL [3]: 0.0005%

Compound: CC(C)C(=Nc1ccc(Br)c(Br)c1)OCc1cccc(Oc2ccccc2)c1 [Compound 252]
- LC50, HF [1]: 34 µg
- LC50, TBW, E (TBW-E) [2]: 0.04%
- LC50, CL [3]: 0.0035%

Compound: CC(C)C(=Nc1cccc(Cl)c1)OCc1cccc(Oc2ccc(Br)cc2)c1 [Compound 260]
- LC50, HF [1]: 22 µg
- LC50, TBW, E (TBW-E) [2]: > 0.1%
- LC50, CL [3]: 0.00075%

Compound: CCC(C)C(=Nc1ccc(F)c(Cl)c1)OCc1ccc(F)c(Oc2ccccc2)c1 (stereo not drawn) [Compound 261]
- LC50, HF [1]: 24 µg
- LC50, TBW, E (TBW-E) [2]: 0.05%
- LC50, CL [3]: 0.001%

Compound: Cc1ccc(Cl)cc1N=C(OCc1cccc(Oc2ccccc2)c1)C(C)C [Compound 263]
- LC50, HF [1]: > 100 µg
- LC50, TBW, E (TBW-E) [2]: > 0.1%
- LC50, CL [3]: 0.05%

Compound: COc1ccc(Cl)cc1N=C(OCc1cccc(Oc2ccccc2)c1)C(C)C [Compound 264]
- LC50, HF [1]: > 100 µg
- LC50, TBW, E (TBW-E) [2]: > 0.1%
- LC50, CL [3]: 0.03%

Compound: CC(C)C(=Nc1ccc(F)cc1)OCc1cccc(Oc2ccc(F)c(F)c2)c1 [Compound 265]
- LC50, HF [1]: 10 µg
- LC50, TBW, E (TBW-E) [2]: 0.07%
- LC50, CL [3]: 0.00025%

Compound: CC(C)C(=Nc1cccc(SC(F)(F)F)c1)OCc1cccc(Oc2ccc(F)cc2)c1 [Compound 272]
- LC50, HF [1]: > 100 µg
- LC50, TBW, E (TBW-E) [2]: > 0.1%
- LC50, CL [3]: 0.0024%

Compound: CC(C)C(=Nc1ccc2c(c1)OCO2)OCc1cc(Oc2ccc(F)cc2)ccc1Cl [Compound 274]
- LC50, HF [1]: > 100 µg
- LC50, TBW, E (TBW-E) [2]: > 0.1%
- LC50, CL [3]: 0.1%

Compound: CC(C)C(=Nc1ccc(F)c(F)c1)OCc1cccc(Oc2ccc(Br)cc2)c1 [Compound 275]
- LC50, HF [1]: 21 µg
- LC50, TBW, E (TBW-E) [2]: 0.045%
- LC50, CL [3]: 0.00012%

Compound: CC(C)C(=Nc1ccc(F)c(Br)c1)OCc1cccc(Oc2ccc(Br)cc2)c1 [Compound 276]
- LC50, HF [1]: 39 µg
- LC50, TBW, E (TBW-E) [2]: 0.1%
- LC50, CL [3]: 0.002%

Compound: CC(C)C(=Nc1ccc(C2CCCCC2)cc1)OCc1cccc(Oc2ccc(F)cc2)c1 [Compound 280]
- LC50, HF [1]: > 100 µg
- LC50, TBW, E (TBW-E) [2]: > 0.1%
- LC50, CL [3]: 0.024%

Compound: CC(C)C(=Nc1ccc(C(F)(F)F)cc1)OCc1ccc(F)c(Oc2ccc(F)cc2)c1 [Compound 287]
- LC50, HF [1]: > 100 µg
- LC50, TBW, E (TBW-E) [2]: > 0.1%
- LC50, CL [3]: 0.0025%

Compound: CC(C)C(=Nc1cccc(OC(F)(F)C(F)F)c1)OCc1cccc(Oc2ccc(F)cc2)c1 [Compound 288]
- LC50, HF [1]: > 100 µg
- LC50, TBW, E (TBW-E) [2]: > 0.1%
- LC50, CL [3]: 0.0015%

Compound: CCC(CC)C(=Nc1ccc(Cl)cc1)OCc1cccc(Oc2ccc(F)cc2)c1 [Compound 290]
- LC50, HF [1]: > 100 µg
- LC50, TBW, E (TBW-E) [2]: > 0.1%
- LC50, CL [3]: 0.017%

Compound: CCC(CC)C(=Nc1cccc(C(F)(F)F)c1)OCc1cccc(Oc2ccc(F)cc2)c1 [Compound 291]
- LC50, HF [1]: > 100 µg
- LC50, TBW, E (TBW-E) [2]: > 0.1%
- LC50, CL [3]: 0.004%

Compound: CC(Br)C(=Nc1ccc(F)c(Cl)c1)OCc1cccc(Oc2ccc(F)cc2)c1 (stereo not drawn) [Compound 305]
- LC50, HF [1]: > 100 µg
- LC50, TBW, E (TBW-E) [2]: > 0.1%
- LC50, CL [3]: 0.048%

Compound: CC(C)C(=Nc1ccc(C(C)(C)C)c(Cl)c1)OCc1cccc(Oc2ccc(F)cc2)c1 [Compound 308]
- LC50, HF [1]: > 100 µg
- LC50, TBW, E (TBW-E) [2]: > 0.1%
- LC50, CL [3]: 0.009%

Compound: CC(C)(F)C(=Nc1ccc(F)c(Cl)c1)OCc1cccc(Oc2ccc(F)cc2)c1 [Compound 309]
- LC50, HF [1]: > 100 µg
- LC50, TBW, E (TBW-E) [2]: 0.07%
- LC50, CL [3]: 0.00017%

Compound: CC(C)C(=Nc1ccc(Cl)cc1Cl)OCc1cccc(Oc2ccccc2)c1 [Compound 311]
- LC50, HF [1]: 22 µg
- LC50, TBW, E (TBW-E) [2]: 0.1%
- LC50, CL [3]: 0.0017%

Compound: CC(C)C(=Nc1ccc(Cl)cc1Cl)OCc1cccc(Oc2ccc(F)cc2)c1 [Compound 312]
- LC50, HF [1]: > 100 µg
- LC50, TBW, E (TBW-E) [2]: > 0.1%
- LC50, CL [3]: 0.006%

Compound: CC(C)C(=Nc1ccc2c(c1)OCO2)OCc1ccc(F)c(Oc2ccc(Cl)cc2)c1 [Compound 313]
- LC50, HF [1]: > 100 µg
- LC50, TBW, E (TBW-E) [2]: 0.013%
- LC50, CL [3]: 0.00025%

Compound: CCC(C)C(=Nc1ccc(C(C)C)cc1)OCc1cccc(Oc2ccccc2)c1 (stereo not drawn) [Compound 317]
- LC50, HF [1]: > 100 µg
- LC50, TBW, E (TBW-E) [2]: 0.03%
- LC50, CL [3]: 0.0045%

Compound: CC(C)(F)C(=Nc1ccc(F)c(F)c1)OCc1cccc(Oc2ccc(F)cc2)c1 [Compound 318]
- LC50, HF [1]: 19 µg
- LC50, TBW, E (TBW-E) [2]: > 0.1%
- LC50, CL [3]: 0.0007%

Compound: CC(C)(F)C(=Nc1cccc(C(F)(F)F)c1)OCc1cccc(Oc2ccc(F)cc2)c1 [Compound 319]
- LC50, HF [1]: 44 µg
- LC50, TBW, E (TBW-E) [2]: > 0.1%
- LC50, CL [3]: 0.0007%

Compound: CCC(=Nc1ccc(C(C)C)cc1)OCc1cccc(Oc2ccc(F)cc2)c1 [Compound 320]
- LC50, HF [1]: > 100 µg
- LC50, TBW, E (TBW-E) [2]: > 0.1%
- LC50, CL [3]: 0.0075%

Compound: CCC(CC)C(=Nc1ccc(C(C)C)cc1)OCc1cccc(Oc2ccccc2)c1 [Compound 321]
- LC50, HF [1]: > 100 µg
- LC50, TBW, E (TBW-E) [2]: > 0.1%
- LC50, CL [3]: 0.05%

Compound: CC(C)c1ccc(N=C(OCc2cccc(Oc3ccc(F)cc3)c2)C(C)(C)C)cc1 [Compound 322]
- LC50, HF [1]: > 100 µg
- LC50, TBW, E (TBW-E) [2]: > 0.1%
- LC50, CL [3]: 0.007%

Compound: CC(C)C(=Nc1ccc(F)c(Cl)c1)OCc1cc(F)cc(Oc2ccc(F)cc2)c1 [Compound 327]
- LC50, HF [1]: > 100 µg
- LC50, TBW, E (TBW-E) [2]: > 0.1%
- LC50, CL [3]: 0.005%

Compound: CC(C)CC(=Nc1ccc(C(C)C)cc1)OCc1cccc(Oc2ccc(F)cc2)c1 [Compound 329]
- LC50, HF [1]: 7 µg
- LC50, TBW, E (TBW-E) [2]: > 0.1%
- LC50, CL [3]: 0.033%

Compound: CC(C)C(=Nc1ccc(F)c(Cl)c1)OCc1cccc(Oc2ccc(I)cc2)c1 [Compound 447]
- LC50, HF [1]: 33 µg
- LC50, TBW, E (TBW-E) [2]: > 0.1%
- LC50, CL [3]: 0.0009%

Compound: CC(C)C(=Nc1ccc(F)c(Cl)c1)OCc1ccc(Cl)c(Oc2ccc(F)cc2)c1 [Compound 448]
- LC50, HF [1]: 16 µg
- LC50, TBW, E (TBW-E) [2]: 0.03%
- LC50, CL [3]: 0.003%
